Test systems include TK-10 renal; COLO 205 colon; UO-31 renal; OVCAR-4 ovarian; UACC-257 melanoma; DU-145 prostate; M14 melanoma.
What all share (assay): NCI-60 cell line screen, 48 h

Where “and” joins values, the source holds several entries; their conditions need not be identical. Identical values can stand only once.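 Results reflect a 48-hour exposure of cells in 96-well plates to compound at five concentrations. GI50 is the concentration that inhibits growth by half. TGI denotes the concentration required for complete inhibition of growth.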

From PubChem BioAssay (NCI) come the findings set out here.

For the molecule `C=CCC(N[C@H](CO)c1ccccc1)c1ccc2ccccc2n1` (some centres undefined), the GI50 in the experiment on TK-10 renal, in the experiment with COLO 205 colon, in the experiment on UO-31 renal, with OVCAR-4 ovarian, in the experiment on UACC-257 melanoma and in the experiment with DU-145 prostate was over 100 µM throughout. Also, the GI50 in the experiment on M14 melanoma was over 100 µM. Besides, the TGI in the experiment on TK-10 renal, in the experiment with COLO 205 colon, in the experiment on UO-31 renal, in the experiment with OVCAR-4 ovarian, in the experiment on UACC-257 melanoma and with DU-145 prostate was over 100 µM each time. This molecule also gave a TGI in the experiment with M14 melanoma of over 100 µM.

Regarding `Cc1nc2sc(C(=O)Nc3cccc(Cl)c3C)c(N)c2cc1C(=O)/C=C/c1ccccc1`, the GI50 was 1.06 µM in the experiment with TK-10 renal; 0.979 µM with COLO 205 colon; 0.438 µM in the experiment on UO-31 renal; 1.23 µM in the experiment with OVCAR-4 ovarian; 1.5 µM in the experiment with UACC-257 melanoma; 0.769 µM in the experiment with DU-145 prostate. Besides, the GI50 in the experiment on M14 melanoma is 0.239 µM. Besides, the TGI with TK-10 renal came out at 4.54 µM; in the experiment on COLO 205 colon, 2.39 µM; in the experiment with UO-31 renal, 1.1 µM; in the experiment with OVCAR-4 ovarian, 7.03 µM; in the experiment on UACC-257 melanoma, 12.6 µM; in the experiment with DU-145 prostate, 2.84 µM. Also, the TGI with M14 melanoma was found to be 1.35 µM.

Consider `CC1C[C@@]2(c3ccccc3)C(=O)CCC[C@H]2N1` (some centres undefined), for which the TGI with TK-10 renal, in the experiment on UO-31 renal, in the experiment on OVCAR-4 ovarian, with UACC-257 melanoma and with M14 melanoma was over 100 µM throughout.

Consider `CN[C@@H](C)C(=O)N[C@H](C(=O)N1CCC[C@H]1C(=O)N[C@H]1c2ccccc2C[C@H]1OCC#CC#CCO[C@@H]1Cc2ccccc2[C@@H]1NC(=O)[C@@H]1CCCN1C(=O)[C@@H](NC(=O)[C@H](C)NC)C1CCCCC1)C1CCCCC1`, for which the GI50 in the experiment on TK-10 renal is 19.7 µM; in the experiment on COLO 205 colon, 1.78 µM; in the experiment with UO-31 renal it was over 44.2 µM; in the experiment on OVCAR-4 ovarian, under 0.01 µM; with UACC-257 melanoma it was 13.5 µM; in the experiment on DU-145 prostate, 5.35 µM. Further, the GI50 in the experiment with M14 melanoma was 5.72 µM. For the same molecule, the TGI was 35.6 µM in the experiment on TK-10 renal; 3.55 µM with COLO 205 colon; over 59.3 µM with UO-31 renal; 10.9 µM in the experiment on OVCAR-4 ovarian; 28.8 µM in the experiment on UACC-257 melanoma; 16.5 µM in the experiment on DU-145 prostate. In addition, the TGI with M14 melanoma was 18 µM.

Regarding `COc1cc2c(cc1OCCCOc1cc3c(cc1OC)C(=O)N1C[C@H](F)C[C@H]1C=N3)N=C[C@@H]1C[C@@H](F)CN1C2=O`, the GI50 in the experiment on TK-10 renal was 15 µM; in the experiment on COLO 205 colon, 14.4 µM; in the experiment with UO-31 renal, 13.2 µM; in the experiment on OVCAR-4 ovarian, 16.2 µM; in the experiment on DU-145 prostate it was 3.44 µM; in the experiment with M14 melanoma, 3.52 µM. The TGI is 28.2 µM in the experiment with TK-10 renal; 27.4 µM with COLO 205 colon; 26 µM with UO-31 renal; 31.7 µM in the experiment on OVCAR-4 ovarian; 14.7 µM with DU-145 prostate; 16.4 µM in the experiment on M14 melanoma.

Consider `O=c1ccn(C2OC(CO)C(O)C2F)c(=O)[nH]1` (centres undefined), for which the GI50 in the experiment with TK-10 renal is over 1000 µM; with COLO 205 colon, over 1000 µM; with UO-31 renal it was over 1000 µM; in the experiment on OVCAR-4 ovarian, 26 µM; in the experiment on UACC-257 melanoma it was over 1000 µM; in the experiment with DU-145 prostate it was over 1000 µM. Further, the GI50 in the experiment with M14 melanoma was over 1000 µM. In addition, the TGI is over 1000 µM with TK-10 renal; over 1000 µM in the experiment on COLO 205 colon; over 1000 µM with UO-31 renal; 840 µM and > 100 µM in the experiment with OVCAR-4 ovarian; over 1000 µM in the experiment on UACC-257 melanoma; over 1000 µM in the experiment on DU-145 prostate. Also, the TGI in the experiment on M14 melanoma is over 1000 µM.

With `CSc1ccc(C2=NN(C(=O)c3ccc(F)cc3)C(c3ccc(F)cc3)C2)cc1` (centres undefined), the GI50 with TK-10 renal is 10.4 µM; in the experiment with COLO 205 colon it was 12.3 µM; in the experiment with UO-31 renal it was 12.6 µM; in the experiment on OVCAR-4 ovarian, 14.9 µM; in the experiment with UACC-257 melanoma, 14.7 µM; in the experiment on DU-145 prostate, 14.6 µM. The GI50 in the experiment with M14 melanoma is 9.43 µM. For the same molecule, the TGI in the experiment with TK-10 renal is 22.8 µM; in the experiment on COLO 205 colon it was 25.6 µM; with UO-31 renal it was 25.1 µM; in the experiment on OVCAR-4 ovarian, 30.3 µM; with UACC-257 melanoma it was 28.3 µM; in the experiment on DU-145 prostate, 29.3 µM. Further, the TGI with M14 melanoma is 22.1 µM.

As to `CC(O)c1cccc(NCc2c3ccccc3c(=O)n3c2oc2ccccc23)c1` (centres undefined), the GI50 in the experiment with TK-10 renal is 5.7 µM; in the experiment on COLO 205 colon, over 100 µM; in the experiment with UO-31 renal it was 3.58 µM; in the experiment on UACC-257 melanoma, 8.24 µM; in the experiment on DU-145 prostate, 5.46 µM; in the experiment with M14 melanoma it was 4.5 µM. Moreover, the TGI in the experiment on TK-10 renal is 28 µM; in the experiment with COLO 205 colon, over 100 µM; with UO-31 renal, 28.1 µM; with UACC-257 melanoma, 47.7 µM; with DU-145 prostate, over 100 µM; in the experiment on M14 melanoma, 25.2 µM.

With `CC1(C)C2CCC3=C(CCC4(C)C5C[C@](C)(C(=O)O)CC[C@]5(C)CC[C@]34C)[C@@]2(C)CC[C@@H]1O` (some centres undefined), the TGI with TK-10 renal is 32.2 µM; with COLO 205 colon it was over 100 µM; in the experiment with UO-31 renal, over 100 µM; with OVCAR-4 ovarian, 32.9 µM; with DU-145 prostate, 34.5 µM; in the experiment with M14 melanoma, 31.8 µM.

On to `CCC1(CC)C(=O)OC(=O)C1(CC)CC`, for which the TGI with TK-10 renal, in the experiment with COLO 205 colon, in the experiment on UO-31 renal, in the experiment with OVCAR-4 ovarian, in the experiment on DU-145 prostate and with M14 melanoma was over 100 µM throughout.

For `CCN1CCN(C(=O)[C@]23CC[C@@H](C)[C@H](C)[C@@H]2C2=CC[C@@H]4[C@@]5(C)C/C(=C/c6ccncc6)C(=O)C(C)(C)[C@@H]5CC[C@@]4(C)[C@]2(C)CC3)CC1`, the GI50 in the experiment on TK-10 renal was 1.73 µM; in the experiment with COLO 205 colon, 2.11 µM; with UO-31 renal, 1.37 µM; in the experiment on OVCAR-4 ovarian, 1.65 µM; in the experiment on UACC-257 melanoma, 1.84 µM; in the experiment with DU-145 prostate it was 1.87 µM. Also, the TGI in the experiment with TK-10 renal was found to be 3.31 µM; with COLO 205 colon it was 5.62 µM; in the experiment with UO-31 renal it was 2.65 µM; in the experiment with OVCAR-4 ovarian, 3.18 µM; in the experiment with UACC-257 melanoma, 3.92 µM; with DU-145 prostate, 3.43 µM.

In the case of `COC(=O)c1s/c(=N\C(=S)N(C)C)n(-c2ccccc2)c1C(=O)OC`, the TGI in the experiment on TK-10 renal, with COLO 205 colon, in the experiment on UO-31 renal, in the experiment on OVCAR-4 ovarian, with UACC-257 melanoma and in the experiment with M14 melanoma was over 100 µM in each case.
